Data taken from patent US20070128217A1 (priority 2003, published 2007).

What was measured:
[1] = system: antibodies in sera from SARS patients (sera 1a, 1b, 2, 6, 37, 62, London, SARS-yellow, SARS-green); assay type: binding, human; set-up: Binding of serum 6 to linear peptides of protein X1 of SARS-CoV Urbani / Binding of serum 37 to linear peptides of protein X1 of SARS-CoV Urbani / Binding of serum 6 to looped/cyclic peptide (PEPSCAN-ELISA) / Binding of serum 37 to looped/cyclic peptide (PEPSCAN-ELISA) / Binding of serum 37 to looped/cyclic peptides of protein X1 of SARS-CoV Urbani / Binding of serum 6 to linear peptides of protein X2 / Binding of serum 37 to linear peptides of protein X2 / Binding of serum 37 to looped/cyclic peptides of protein X2 of SARS-CoV Urbani / Binding of serum 6 to linear peptides of protein M of SARS-CoV Urbani / Binding of serum 37 to linear peptides of protein M of SARS-CoV Urbani / Binding of serum 6 to looped/cyclic peptides of protein M of SARS-CoV Urbani / Binding of serum 37 to looped/cyclic peptides of protein M of SARS-CoV Urbani / Binding of serum 6 to linear peptides of protein X3 of SARS-CoV Urbani / Binding of serum 37 to linear peptides of protein X3 of SARS-CoV Urbani / Binding of serum 37 to looped/cyclic peptides of protein X3 of SARS-CoV Urbani / Binding of serum 6 to linear peptides of protein X4 of SARS-CoV Urbani / Binding of serum 37 to linear peptides of protein X4 of SARS-CoV Urbani / Binding of serum 37 to looped/cyclic peptides of protein X4 of SARS-CoV Urbani / Binding of serum 6 to linear peptides of protein X5 of SARS-CoV Urbani / Binding of serum 37 to linear peptides of protein X5 of SARS-CoV Urbani / Binding of serum 37 to looped/cyclic peptides of protein X5 of SARS-CoV Urbani / Binding of serum 6 to linear peptides of protein N of SARS-CoV Urbani / Binding of serum 37 to linear peptides of protein N of SARS-CoV Urbani / Binding of serum 6 to linear peptide (PEPSCAN-ELISA) / Binding of serum 1a to looped/cyclic peptides of protein N of SARS-CoV Urbani / Binding of serum 1b to looped/cyclic peptides of protein N of SARS-CoV Urbani / Binding of serum 2 to looped/cyclic peptides of protein N of SARS-CoV Urbani / Binding of serum 6 to looped/cyclic peptides of protein N of SARS-CoV Urbani / Binding of serum 37 to looped/cyclic peptides of protein N of SARS-CoV Urbani / Binding of serum 62 to looped/cyclic peptides of protein N of SARS-CoV Urbani / Binding of serum London to looped/cyclic peptides of protein N of SARS-CoV Urbani / Binding of serum SARS-green to looped/cyclic peptides of protein N of SARS-CoV Urbani: unit not given here
[2] = system: control sera (pooled serum of ten healthy LUMC hospital workers; commercial negative donor pooled serum from the Dutch bloodbank); assay type: binding, human; set-up: Binding of Control serum LUMC to linear peptides / Binding of Control serum Blood-bank to linear peptides / Binding of Control serum LUMC to looped peptides / Binding of Control Serum Blood-Bank to Looped peptides / Binding of Control serum LUMC to linear peptides of the protein M of SARS-CoV Urbani / Binding of Control serum Blood-bank to linear peptides of the protein M of SARS-CoV Urbani / Binding of Control serum LUMC to looped peptides of the protein M of SARS-CoV Urbani / Binding of Control Serum Blood-Bank to Looped peptides of the protein M of SARS-CoV Urbani: unit not given here
[3] = system: rabbit serum obtained by immunizing a rabbit with the SARS-CoV strain Frankfurt 1; assay type: binding; set-up: Binding of a rabbit serum to linear peptides / Binding of a rabbit serum to looped peptides / Rabbit serum linear peptides / Rabbit serum looped peptides / Binding of a rabbit serum to linear peptides of protein N of SARS-CoV Urbani (Rabbit serum linear peptides) / Binding of a rabbit serum to looped/cyclic peptides of protein N of SARS-CoV Urbani (Rabbit serum looped peptides): unit not given here

## RNRFLYIIKLVFLWL
[1]
  Binding of serum 1a to linear peptides of protein M of SARS-CoV Urbani: 0.6
  Binding of serum 1b to linear peptides of protein M of SARS-CoV Urbani: 0.5
  Binding of serum 2 to linear peptides of protein M of SARS-CoV Urbani: 0.4
  Binding of serum 6 to linear peptides of protein M of SARS-CoV Urbani: 0.5
  Binding of serum 37 to linear peptides of protein M of SARS-CoV Urbani: 0.4
  Binding of serum 62 to linear peptides of protein M of SARS-CoV Urbani: 0.5
  Binding of serum London to linear peptides of protein M of SARS-CoV Urbani: 0.3
  Binding of serum SARS-green to linear peptides of protein M of SARS-CoV Urbani: 0.4
  Binding of serum SARS-yellow to linear peptides of protein M of SARS-CoV Urbani: 0.3
  Recognition of the peptide by sera of SARS-CoV infected individuals, and form (linear, looped/cyclic) in which it is recognized: recognized in looped/cyclic form
[2]
  Binding of Control Serum Blood-Bank to Looped peptides of the protein M of SARS-CoV Urbani: 0.7
  Binding of Control serum Blood-bank to linear peptides of the protein M of SARS-CoV Urbani: 0.6
  Binding of Control serum LUMC to linear peptides of the protein M of SARS-CoV Urbani: 0.7
  Binding of Control serum LUMC to looped peptides of the protein M of SARS-CoV Urbani: 0.8
[3]
  Rabbit serum linear peptides: 0.4
  Rabbit serum looped peptides: 0.5

## TIYSHLLLVAAGMEA
[1]
  Binding of serum 1a to linear peptides of protein X1 of SARS-CoV Urbani: 0.6
  Binding of serum 1a to looped/cyclic peptide (PEPSCAN-ELISA): 0.5
  Binding of serum 1b to linear peptides of protein X1 of SARS-CoV Urbani: 0.5
  Binding of serum 1b to looped/cyclic peptide (PEPSCAN-ELISA): 0.4
  Binding of serum 2 to linear peptides of protein X1 of SARS-CoV Urbani: 0.4
  Binding of serum 2 to looped/cyclic peptide (PEPSCAN-ELISA): 0.3
  Binding of serum 6 to linear peptides of protein X1 of SARS-CoV Urbani: 0.3
  Binding of serum 6 to looped/cyclic peptide (PEPSCAN-ELISA): 0.3
  Binding of serum 37 to linear peptides of protein X1 of SARS-CoV Urbani: 0.5
  Binding of serum 37 to looped/cyclic peptide (PEPSCAN-ELISA): 0.5
  Binding of serum 62 to linear peptides of protein X1 of SARS-CoV Urbani: 0.4
  Binding of serum 62 to looped/cyclic peptide (PEPSCAN-ELISA): 0.5
  Binding of serum London to linear peptides of protein X1 of SARS-CoV Urbani: 0.2
  Binding of serum London to looped/cyclic peptide (PEPSCAN-ELISA): 0.2
  Binding of serum SARS-green to linear peptides of protein X1 of SARS-CoV Urbani: 0.3
  Binding of serum SARS-green to looped/cyclic peptide (PEPSCAN-ELISA): 0.2
  Binding of serum SARS-yellow to linear peptides of protein X1 of SARS-CoV Urbani: 0.5
  Binding of serum SARS-yellow to looped/cyclic peptide (PEPSCAN-ELISA): 0.3
[2]
  Binding of Control Serum Blood-Bank to Looped peptides: 0.5
  Binding of Control serum Blood-bank to linear peptides: 0.4
  Binding of Control serum LUMC to linear peptides: 0.4
  Binding of Control serum LUMC to looped peptides: 0.6
[3]
  Binding of a rabbit serum to linear peptides: 0.1
  Binding of a rabbit serum to looped peptides: 0.4

## YQLESTQITTDTGIE
[1]
  Binding of serum 1a to linear peptides of protein X1 of SARS-CoV Urbani: 0.6
  Binding of serum 1a to looped/cyclic peptides of protein X1 of SARS-CoV Urbani: 0.4
  Binding of serum 1b to linear peptides of protein X1 of SARS-CoV Urbani: 0.5
  Binding of serum 1b to looped/cyclic peptides of protein X1 of SARS-CoV Urbani: 0.3
  Binding of serum 2 to linear peptides of protein X1 of SARS-CoV Urbani: 0.4
  Binding of serum 2 to looped/cyclic peptides of protein X1 of SARS-CoV Urbani: 0.1
  Binding of serum 6 to linear peptides of protein X1 of SARS-CoV Urbani: 0.5
  Binding of serum 6 to looped/cyclic peptides of protein X1 of SARS-CoV Urbani: 0.1
  Binding of serum 37 to linear peptides of protein X1 of SARS-CoV Urbani: 0.6
  Binding of serum 37 to looped/cyclic peptides of protein X1 of SARS-CoV Urbani: 0.3
  Binding of serum 62 to linear peptides of protein X1 of SARS-CoV Urbani: 0.5
  Binding of serum 62 to looped/cyclic peptides of protein X1 of SARS-CoV Urbani: 0.3
  Binding of serum London to linear peptides of protein X1 of SARS-CoV Urbani: 0.2
  Binding of serum London to looped/cyclic peptides of protein X1 of SARS-CoV Urbani: 0.1
  Binding of serum SARS-green to linear peptides of protein X1 of SARS-CoV Urbani: 0.4
  Binding of serum SARS-green to looped/cyclic peptides of protein X1 of SARS-CoV Urbani: 0.2
  Binding of serum SARS-yellow to linear peptides of protein X1 of SARS-CoV Urbani: 0.5
  Binding of serum SARS-yellow to looped/cyclic peptides of protein X1 of SARS-CoV Urbani: 0.2
[2]
  Binding of Control Serum Blood-Bank to Looped peptides: 0.3
  Binding of Control serum Blood-bank to linear peptides: 0.4
  Binding of Control serum LUMC to linear peptides: 0.4
  Binding of Control serum LUMC to looped peptides: 0.4
[3]
  Binding of a rabbit serum to linear peptides: 0.1
  Binding of a rabbit serum to looped peptides: 0.4

## PFHRWHTMVQTCTPN
[1]
  Binding of serum 1a to linear peptides of protein X5 of SARS-CoV Urbani: 0.7
  Binding of serum 1a to looped/cyclic peptides of protein X5 of SARS-CoV Urbani: 0.6
  Binding of serum 1b to linear peptides of protein X5 of SARS-CoV Urbani: 0.7
  Binding of serum 1b to looped/cyclic peptides of protein X5 of SARS-CoV Urbani: 0.5
  Binding of serum 2 to linear peptides of protein X5 of SARS-CoV Urbani: 0.7
  Binding of serum 2 to looped/cyclic peptides of protein X5 of SARS-CoV Urbani: 0.6
  Binding of serum 6 to linear peptides of protein X5 of SARS-CoV Urbani: 0.7
  Binding of serum 6 to looped/cyclic peptides of protein X5 of SARS-CoV Urbani: 0.3
  Binding of serum 37 to linear peptides of protein X5 of SARS-CoV Urbani: 0.7
  Binding of serum 37 to looped/cyclic peptides of protein X5 of SARS-CoV Urbani: 0.5
  Binding of serum 62 to linear peptides of protein X5 of SARS-CoV Urbani: 0.7
  Binding of serum 62 to looped/cyclic peptides of protein X5 of SARS-CoV Urbani: 0.3
  Binding of serum London to linear peptides of protein X5 of SARS-CoV Urbani: 0.7
  Binding of serum London to looped/cyclic peptides of protein X5 of SARS-CoV Urbani: 0.2
  Binding of serum SARS-green to linear peptides of protein X5 of SARS-CoV Urbani: 0.5
  Binding of serum SARS-green to looped/cyclic peptides of protein X5 of SARS-CoV Urbani: 0.3
  Binding of serum SARS-yellow to linear peptides of protein X5 of SARS-CoV Urbani: 0.4
  Binding of serum SARS-yellow to looped/cyclic peptides of protein X5 of SARS-CoV Urbani: 0.3
[2]
  Binding of Control Serum Blood-Bank to Looped peptides: 0.5
  Binding of Control serum Blood-bank to linear peptides: 0.7
  Binding of Control serum LUMC to linear peptides: 0.5
  Binding of Control serum LUMC to looped peptides: 0.4
[3]
  Rabbit serum linear peptides: 0.5
  Rabbit serum looped peptides: 0.4

## VVILRIGTQVLKTMS
[1]
  Binding of serum 1a to linear peptides of protein X2: 0.6
  Binding of serum 1a to looped/cyclic peptides of protein X2 of SARS-CoV Urbani: 0.4
  Binding of serum 1b to linear peptides of protein X2: 0.5
  Binding of serum 1b to looped/cyclic peptides of protein X2 of SARS-CoV Urbani: 0.4
  Binding of serum 2 to linear peptides of protein X2: 0.5
  Binding of serum 2 to looped/cyclic peptides of protein X2 of SARS-CoV Urbani: 0.3
  Binding of serum 6 to linear peptides of protein X2: 0.5
  Binding of serum 6 to looped/cyclic peptides of protein X2 of SARS-CoV Urbani: 0.3
  Binding of serum 37 to linear peptides of protein X2: 0.6
  Binding of serum 37 to looped/cyclic peptides of protein X2 of SARS-CoV Urbani: 0.3
  Binding of serum 62 to linear peptides of protein X2: 0.6
  Binding of serum 62 to looped/cyclic peptides of protein X2 of SARS-CoV Urbani: 0.4
  Binding of serum London to linear peptides of protein X2: 0.4
  Binding of serum London to looped/cyclic peptides of protein X2 of SARS-CoV Urbani: 0.2
  Binding of serum SARS-green to linear peptides of protein X2: 0.5
  Binding of serum SARS-green to looped/cyclic peptides of protein X2 of SARS-CoV Urbani: 0.3
  Binding of serum SARS-yellow to linear peptides of protein X2: 0.6
  Binding of serum SARS-yellow to looped/cyclic peptides of protein X2 of SARS-CoV Urbani: 0.4
[2]
  Binding of Control Serum Blood-Bank to Looped peptides: 0.3
  Binding of Control serum Blood-bank to linear peptides: 0.7
  Binding of Control serum LUMC to linear peptides: 0.5
  Binding of Control serum LUMC to looped peptides: 0.3
[3]
  Binding of a rabbit serum to linear peptides: 0.4
  Binding of a rabbit serum to looped peptides: 0.4
